Target: T1, PIk1 (Homo sapiens, UniProt P53350)
T1 construct: His tag (histidine tag) (N); made in house; host or cells: SF9 insect cells
Test: PIk1 kinase activity inhibition assay (33P incorporation into alpha casein, flash plates)
Assay type: biochemical
Conditions: recombinant N-terminally histidine-tagged PIk1, alpha casein as substrate, 100 nM Li-ATP, 80 minutes at 30°C
Outline: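 N-terminally His-tagged human Plk1 from SF9 cells (50–100 ng/well) phosphorylated alpha casein with 100 nM Li-ATP plus 33P-ATP in HEPES pH 7.5, MgCl2/MnCl2 buffer for 80 minutes at 30°C. After H3PO4 stop and washing, casein-bound 33P was counted on scintillator-coated flash plates to derive IC50.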

T1 sequence (P53350 whole entry): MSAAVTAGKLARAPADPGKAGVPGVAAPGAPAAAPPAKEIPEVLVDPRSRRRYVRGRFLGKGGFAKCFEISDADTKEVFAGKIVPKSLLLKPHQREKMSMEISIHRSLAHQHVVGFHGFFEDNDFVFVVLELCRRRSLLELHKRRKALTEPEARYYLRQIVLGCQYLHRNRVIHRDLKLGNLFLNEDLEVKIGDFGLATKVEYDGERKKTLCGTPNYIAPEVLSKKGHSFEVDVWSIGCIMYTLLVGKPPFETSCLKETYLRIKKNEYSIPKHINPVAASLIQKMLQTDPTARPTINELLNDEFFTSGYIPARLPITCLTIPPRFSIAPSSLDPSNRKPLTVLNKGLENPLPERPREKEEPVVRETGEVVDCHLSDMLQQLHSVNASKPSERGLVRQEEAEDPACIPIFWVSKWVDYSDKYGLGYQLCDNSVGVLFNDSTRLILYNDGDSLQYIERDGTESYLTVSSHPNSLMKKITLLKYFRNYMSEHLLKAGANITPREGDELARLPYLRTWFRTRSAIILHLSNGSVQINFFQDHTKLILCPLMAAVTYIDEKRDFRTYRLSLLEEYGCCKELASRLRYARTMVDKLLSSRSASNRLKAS

- IC50: < 10 nM
SMILES: COc1cc(C(=O)NC2CCN(C)CC2)ccc1Nc1ncc2c(n1)c(-c1cc[nH]c1)c(OCC1CC1)c(=O)n2C [Example 76, 4-{[7-(cyclopropylmethoxy)-5-methyl-6-oxo-8-(1H-pyrrol-3-yl)-5,6-dihydro-pyrido[3,2-d]pyrimidin-2-yl]amino}-3-methoxy-N-(1-methylpiperidin-4-yl)benzamide]
